Measurements as given in PMC8619673 (Cells, 2021).

Assays:
[1] = target: T1, Aβ42 peptide (Homo sapiens, UniProt P05067); experiment: Thioflavin T aggregation assay; assay type: biochemical
T1 construct: Aβ42 peptide (10 μM; Kelowna Int’l Scientific Inc., New Taipei City, Taiwan); purchased Kelowna Int’l Scientific Inc., New Taipei City, Taiwan
Procedure: To form Aβ aggregation, Aβ42 peptide (10 μM; Kelowna Int’l Scientific Inc., New Taipei City, Taiwan) was incubated with tested compounds (5–20 μM) in 150 mM NaCl and 20 mM Tris-HCl (pH8.0) at 37 °C for 48 h. Thioflavin T (10 μM; Sigma-Aldrich) was added to the Aβ mixture and incubated at room temperature for 5 min. The fluorescence intensity was recorded at 420 nm excitation and 485 nm emission by an FLx800 microplate reader (Bio-Tek, Winooski, VT, USA). Half maximal effective concentration (EC50) was estimated by a method of interpolation.

[2] = system: Aβ-GFP SH-SY5Y cells; experiment: Aβ-GFP fluorescence (Aβ-GFP folding reporter); assay type: cell-based, Human; conditions: 1–5 μM, normalized with cell number, day 8
Procedure: To induce neuronal differentiation, 2 × 10^4 Aβ-GFP SH-SY5Y cells were seeded on a 96-well plate with retinoic acid (10 µM; Sigma-Aldrich). Cells were pretreated with tested compounds (0.2–5 µM) on day 2 for 8 h and then with doxycycline (5 μg/mL) to induce Aβ-GFP expression. Medium containing retinoic acid compound and doxycycline was refreshed every 2 days for 6 days. Then, cells were stained with Hoechst 33342 (0.1 µg/mL; Sigma-Aldrich) at 37 °C for 30 min. Cell images were recorded at 482/35 nm excitation and 536/40 nm emission wavelengths (ImageXpres Micro Confocal High-Content Imaging System; Molecular Devices, Sunnyvale, CA, USA), and analyzed by MetaXpress (Molecular Devices).

[3] = system: TRKB; experiment: Western blot, TRKB and p-TRKB; assay type: cell-based, Human; conditions: 5 µM; for p-TRKB (Y516) protein level relative to uninduced cells (100%): induced untreated 40%; for p-TRKB (Y817) protein level relative to uninduced cells (100%): induced untreated 71%; for TRKB expression relative to uninduced cells (100%): scrambled shRNA-infected Aβ-expressing cells, untreated 80%
Procedure: (§1) Cellular proteins were prepared using a lysis buffer containing NaCl (150 mM), ethylene diamine tetraacetic acid (EDTA, 1 mM, pH8.0), Tris-HCl (50 mM, pH8.0), ethylene glycol tetraacetic acid (EGTA, 1 mM, pH8.0), sodium dodecyl sulfate (SDS, 0.1%), sodium deoxycholate (SD, 0.5%), Triton X-100 (1%), and protease (Sigma-Aldrich), and phosphatase (Abcam, Cambridge, MA, USA) inhibitor cocktails. After quantitation by protein assay kit (Bio-Rad, Hercules, CA, USA), 20 µg proteins were separated by SDS-polyacrylamide (10%) gel electrophoresis and transferred to polyvinylidene difluoride (PVDF) membranes (Sigma-Aldrich) using a Mini Trans-Blot cell (Bio-Rad). After blocking, the membrane was probed with anti-TRKB, anti-p-TRKB (Y516), anti-p-TRKB (Y817) (1:500; Cell Signaling, Danvers, MA, USA), anti-ERK, anti-p-ERK (T202/Y204) (1:1000; Cell Signaling), anti-AKT, anti-p-AKT (S473) (1:1000; Cell Signaling), anti-CREB, anti-p-CREB (S133) (1:1000; Millipore, Billerica, MA, USA), anti-BDNF, anti-BCL2 (1:500; Santa Cruz Biotechnology, Santa Cruz, CA, USA), anti-BAX (1:1000; Cell Signaling), anti-β-tubulin (1:500; Sigma-Aldrich), or anti-GAPDH (1:1000, MDBio, Taipei, Taiwan) antibody. The immune complexes were detected using goat anti-mouse or goat anti-rabbit IgG antibody conjugated with horseradish peroxidase (1:5000; GeneTex, Irvine, CA, USA) and chemiluminescent substrate (Millipore).
Lentiviral short hairpin RNA (shRNA) targeting TRKB (TRCN0000002243, TRCN0000002245, and TRCN0000002246) and a negative-scrambled control (TRC2.Void) were obtained from the National RNAi Core Facility, IMB/GRC, Academia Sinica (Taipei, Taiwan). As described, cells were plated on 6- or 24-well plates, with retinoic acid added on day 1. Cells were infected with lentivirus (multiplicity of infection, 3 for each shRNA), with polybrene (8 µg/mL; Sigma-Aldrich) on the next day. Cells were pretreated with tested compounds (5 µM) for 8 h after changing medium, followed by doxycycline on day 3. Cells were collected for further analysis on day 9. The hairpin sequences of targeting shRNA were below: • TRCN0000002243: 5’-[…]ctcgag[…]-3’ • TRCN0000002245: 5’-[…]ctcgagATGTT-[…]-3’ • TRCN0000002246: 5’-[…]ctcgag[…]-3’ • TRC2.Void: 5’-[…]ctcgag[…]-3’

[4] = system: CREB; experiment: Western blot, p-CREB; assay type: cell-based, Human; conditions: 5 µM; induced untreated 81%
Procedure: as §1

[5] = system: BDNF; experiment: Western blot, BDNF; assay type: cell-based, Human; conditions: 5 µM; for BDNF 14 kDa protein level relative to uninduced cells (100%): induced untreated 42%; for BDNF 32 kDa protein level relative to uninduced cells (100%): induced untreated 88%
Procedure: as §1

[6] = system: BCL2; experiment: Western blot, BCL2; assay type: cell-based, Human; conditions: 5 µM; induced untreated 72%
Procedure: as §1

[7] = system: BAX; experiment: Western blot, BAX; assay type: cell-based, Human; conditions: 5 µM; induced untreated 182%
Procedure: as §1

[8] = in vitro; conditions: PAMPA
Procedure: PAMPA was used to predict the penetration of the tested compounds across the BBB. […] The filter PVDF membrane (pore size 0.45 μm; Millipore) was coated with 4 μL of porcine polar brain lipid (20 mg/mL; Avanti Polar Lipids, Alabaster, AL, USA) in dodecane and the acceptor well filled with 200 μL of 5% DMSO in PBS. The filter plate was carefully placed on the donor plate to form a sandwich plate at room temperature for 18 h. After the permeation time, the filter and donor plates were separated. The concentration of the tested compound in the donor and acceptor wells was measured by an AB Sciex QTrap 5500 mass spectrometer (Applied Biosystems) linked to a 1200 HPLC system (Agilent Technologies, Palo Alto, CA, USA). The concentrations of the QC compounds were determined by a Tecan Infinite M200 Pro microplate reader (Switzerland). The effective permeability coefficient (Pe) was calculated as described. Each compound was tested in triplicate.

[9] = 1,1-diphenyl-2-picrylhydrazyl radical scavenging; conditions: data not shown
[10] = BBB Permeability Classification
[11] = Measured Pe (effective permeability)

T1 sequence (P05067 672-713 limits assumed): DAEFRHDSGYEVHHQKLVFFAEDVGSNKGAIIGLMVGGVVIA

SMILES	Thioflavin T fluorescence (Aβ aggregation) ([1]; compound 20 µM, Aβ42 10 μM, 37 °C 2 days, 621 AU without compound, 151 AU without incubation) [AU]	GFP fluorescence intensity relative to untreated cells (100%) [2]	p-TRKB (Y516) protein level relative to uninduced cells (100%) [3]	p-TRKB (Y817) protein level relative to uninduced cells (100%) [3]	TRKB expression relative to uninduced cells (100%) [3]	p-CREB (S133) protein level relative to uninduced cells (100%) [4]	BDNF 14 kDa protein level relative to uninduced cells (100%) [5]	BDNF 32 kDa protein level relative to uninduced cells (100%) [5]	BCL2 protein level relative to uninduced cells (100%) [6]	BAX protein level relative to uninduced cells (100%) [7] [%]	Papp at 18 h, 1 μM [8, 10] [×10⁻⁶ cm/s]	Papp at 18 h, 1 μM [8, 11] [×10⁻⁶ cm/s]	1,1-diphenyl-2-picrylhydrazyl radical scavenging activity [9]	Aβ aggregation inhibition (in words) ([1]; compound 20 μM, thioflavin T assay)
O=C(/C=C/c1ccccc1O)c1c(O)c2ccccc2oc1=O [ZN015, (E)-4-hydroxy-3-(3-(2-hydroxyphenyl)acryloyl)-2H-chromen-2-one]	403	113–125%	92–100%	94–108%	77–81%	98–101%	124–140%	113–119%	104–116%	126	> 4	5.16 ± 0.11	no 1,1-diphenyl-2-picrylhydrazyl radical scavenging activity	
CCOC(=O)c1cc2c(O)cccc2oc1=O [ZN014, ethyl 5-hydroxy-2-oxo-2H-chromene-3-carboxylate]		111–119%	92–100%	94–108%	77–81%	98–101%	124–140%	113–119%	104–116%	126	< 2	0.56 ± 0.01	no 1,1-diphenyl-2-picrylhydrazyl radical scavenging activity	did not inhibit Aβ aggregation
